Data on 18 compounds can be found in patent US9771369B2, “Compounds and methods for kinase modulation, and indications therefor” (Plexxikon Inc., priority 2014, dated 2017).

In one experiment the target is c-kit mutant D816V (Homo sapiens (Human), UniProt P10721, D816V/DEL694-753). Description: c-Kit mutant D816V biochemical assay (AlphaScreen kinase activity). In outline: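 Recombinant His-tagged c-Kit D816V kinase domain (residues 551-934, insert 694-753 deleted, E. coli-expressed) phosphorylating 30 nM biotin-(E4Y)10 with 10 μM ATP, HEPES pH 7.2, Mg/Mn, 5% DMSO; 30 min, room temperature. Phosphorylation detected by AlphaScreen (streptavidin donor/PY30 acceptor beads); IC50 from 8-point 1:3 series.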
c-kit mutant D816V, sequence (P10721 other isoform, or with tags, fused parts or gaps D816V/del 694-753): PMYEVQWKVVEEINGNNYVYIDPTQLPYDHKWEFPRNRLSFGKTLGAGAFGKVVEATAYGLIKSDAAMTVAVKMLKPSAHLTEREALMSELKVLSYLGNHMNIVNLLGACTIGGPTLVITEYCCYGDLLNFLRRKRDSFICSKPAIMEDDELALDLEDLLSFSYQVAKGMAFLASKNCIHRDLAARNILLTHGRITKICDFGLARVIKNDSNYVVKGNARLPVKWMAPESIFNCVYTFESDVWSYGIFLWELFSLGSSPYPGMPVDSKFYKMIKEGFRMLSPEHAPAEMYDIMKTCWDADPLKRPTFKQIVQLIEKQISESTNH
A general note: Bead proximity is the source of the signal in Alpha formats.

Experiment [1] has as its system BaF3-FL KIT D816V or BaF3-FL KIT V560G/D816V cell line. The experiment in a line: Cell-based assays of c-Kit mutant kinase activity (cell proliferation, ATPlite). Conditions: at least one of the c-kit cell assays of Example 7. In outline: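 BaF3 cells dependent on transfected full-length human KIT D816V or V560G/D816V (pCI-Neo, CMV promoter) were seeded at 1×10^4 cells/well and exposed to 8-point 1:3 dilutions from 10 μM top (0.2% DMSO) for three days at 37° C. ATPlite luminescence gave cell number; IC50 from concentration-response.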
In general terms: ATP-based viability assays read luminescence as a measure of living cells.

On to `Cc1nc(C2CCN(c3ncnc4[nH]c(-c5ccnc(N6CCC(C)CC6)c5)cc34)CC2)[nH]c1-c1ccccc1` [P-3077, 4-[4-(4-methyl-5-phenyl-1H-imidazol-2-yl)-1-piperidyl]-6-[2-(4-methyl-1-piperidyl)-4-pyridyl]-7H-pyrrolo[2,3-d]pyrimidine], for which the values for the 50% inhibitory concentration (IC50) (at c-kit mutant D816V; in experiment [1]) were 0.0001 to 1 µM and under 10000 nM, respectively.

As for `Cc1nc(C2CCN(c3ncnc4[nH]c(-c5ccnc(OC(C)C)c5)cc34)CC2)[nH]c1-c1ccccc1` [P-3078, 6-(2-isopropoxy-4-pyridyl)-4-[4-(4-methyl-5-phenyl-1H-imidazol-2-yl)-1-piperidyl]-7H-pyrrolo[2,3-d]pyrimidine], the values for the IC50 (against c-kit mutant D816V; in experiment [1]) were 0.0001 to 1 µM and under 10000 nM, respectively.

In the case of `Cc1nc(C2CCN(c3ncnc4[nH]c(-c5ccnc(N6CCCC6)c5)cc34)CC2)[nH]c1-c1ccccc1` [P-3079, 4-[4-(4-methyl-5-phenyl-1H-imidazol-2-yl)-1-piperidyl]-6-(2-pyrrolidin-1-yl-4-pyridyl)-7H-pyrrolo[2,3-d]pyrimidine], the figures for the IC50 (against c-kit mutant D816V; in experiment [1]) were 0.0001 to 1 µM and under 10000 nM, respectively.

Take `Cc1nc(C2CCN(c3ncnc4[nH]c(-c5cccc(OC(F)(F)F)c5)cc34)CC2)[nH]c1-c1ccccc1` [P-3080, 4-[4-(4-methyl-5-phenyl-1H-imidazol-2-yl)-1-piperidyl]-6-[3-(trifluoromethoxy)phenyl]-7H-pyrrolo[2,3-d]pyrimidine]: the IC50 at c-kit mutant D816V was 0.0001 to 1 µM; in experiment [1] it was under 10000 nM.

For `Cc1nc(C2CCN(c3ncnc4[nH]c(-c5cccc(F)c5)cc34)CC2)[nH]c1-c1ccccc1` [P-3081, 6-(3-fluorophenyl)-4-[4-(4-methyl-5-phenyl-1H-imidazol-2-yl)-1-piperidyl]-7H-pyrrolo[2,3-d]pyrimidine], the IC50 is 0.0001 to 1 µM against c-kit mutant D816V and under 10000 nM in experiment [1].

For `Cc1nc(C2CCN(c3ncnc4[nH]c(-c5cccc(NS(C)(=O)=O)c5)cc34)CC2)[nH]c1-c1ccccc1` [P-3083, N-[3-[4-[4-(4-methyl-5-phenyl-1H-imidazol-2-yl)-1-piperidyl]-7H-pyrrolo[2,3-d]pyrimidin-6-yl]phenyl]methane sulfonamide], the values for the IC50 (against c-kit mutant D816V; in experiment [1]) were 0.0001 to 1 µM and under 10000 nM, respectively.

Consider `Cc1nc(C2CCN(c3ncnc4[nH]c(-c5ccc(F)cc5)cc34)CC2)[nH]c1-c1ccc2c(c1)OCCO2` [P-3084, 4-[4-[5-(2,3-dihydro-1,4-benzodioxin-6-yl)-4-methyl-1H-imidazol-2-yl]-1-piperidyl]-6-(4-fluorophenyl)-7H-pyrrolo[2,3-d]pyrimidine], for which the IC50 at c-kit mutant D816V was 0.0001 to 1 µM; in experiment [1], under 10000 nM.

On to `Cc1nc(C2CCN(c3ncnc4[nH]c(-c5ccc(F)cc5)cc34)CC2)[nH]c1-c1ccc(OC(F)(F)F)cc1` [P-3085, 6-(4-fluorophenyl)-4-[4-[4-methyl-5-[4-(trifluoromethoxy)phenyl]-1H-imidazol-2-yl]-1-piperidyl]-7H-pyrrolo[2,3-d]pyrimidine], for which the IC50 against c-kit mutant D816V is 0.0001 to 1 µM; in experiment [1] it was under 10000 nM.

`Cc1nc(C2CCN(c3ncnc4[nH]c(-c5ccc(C#N)cc5)cc34)CC2)[nH]c1-c1ccc(OC(F)(F)F)cc1` [P-3086, 4-[4-[4-[4-methyl-5-[4-(trifluoromethoxy)phenyl]-1H-imidazol-2-yl]-1-piperidyl]-7H-pyrrolo[2,3-d]pyrimidin-6-yl]benzonitrile]: the half-maximal inhibitory concentration (IC50) on c-kit mutant D816V was 0.0001 to 1 µM; in experiment [1], under 10000 nM.

For the compound `COc1cc(-c2cc3c(N4CCC(c5nc(C)c(-c6ccc(OC(F)(F)F)cc6)[nH]5)CC4)ncnc3[nH]2)ccn1` [P-3087, 6-(2-methoxy-4-pyridyl)-4-[4-[4-methyl-5-[4-(trifluoromethoxy)phenyl]-1H-imidazol-2-yl]-1-piperidyl]-7H-pyrrolo[2,3-d]pyrimidine], the IC50 against c-kit mutant D816V is 0.0001 to 1 µM; in experiment [1], under 10000 nM.

Regarding `COc1cc(-c2cc3c(N4CCC(c5nc(C)c(-c6ccc(C)cc6)[nH]5)CC4)ncnc3[nH]2)ccn1` [P-3088, 6-(2-methoxy-4-pyridyl)-4-[4-[4-methyl-5-(p-tolyl)-1H-imidazol-2-yl]-1-piperidyl]-7H-pyrrolo[2,3-d]pyrimidine], the results for the IC50 (against c-kit mutant D816V; in experiment [1]) were 0.0001 to 1 µM and under 10000 nM, respectively.

Take `COc1ccc(-c2[nH]c(C3(C)CCN(c4ncnc5[nH]c(-c6ccc(C#N)nc6)cc45)CC3)nc2C)cc1C` [P-3250, 5-[4-[4-[5-(4-methoxy-3-methyl-phenyl)-4-methyl-1H-imidazol-2-yl]-4-methyl-1-piperidyl]-7H-pyrrolo[2,3-d]pyrimidin-6-yl]pyridine-2-carbonitrile]: the results for the IC50 (at c-kit mutant D816V; in experiment [1]) were 0.0001 to 1 µM and under 10000 nM, respectively.

Regarding `CCOc1ccc(-c2[nH]c(C3(C)CCN(c4ncnc5[nH]c(-c6ccc(C#N)nc6)cc45)CC3)nc2C)cc1` [P-3251, 5-[4-[4-[5-(4-ethoxyphenyl)-4-methyl-1H-imidazol-2-yl]-4-methyl-1-piperidyl]-7H-pyrrolo[2,3-d]pyrimidin-6-yl]pyridine-2-carbonitrile], the IC50 at c-kit mutant D816V is 0.0001 to 1 µM; in experiment [1] it was under 10000 nM.

Regarding `Cc1nc(C2(C)CCN(c3ncnc4[nH]c(-c5ccc(NS(C)(=O)=O)cc5)cc34)CC2)[nH]c1-c1ccc(C(F)F)cc1` [P-3252, N-[4-[4-[4-[5-[4-(difluoromethyl)phenyl]-4-methyl-1H-imidazol-2-yl]-4-methyl-1-piperidyl]-7H-pyrrolo[2,3-d]pyrimidin-6-yl]phenyl]methanesulfonamide], the IC50 is 0.0001 to 1 µM at c-kit mutant D816V and under 10000 nM in experiment [1].

For `Cc1nc(C2(C)CCN(c3ncnc4[nH]c(-c5ccc(C(N)=O)cc5)cc34)CC2)[nH]c1-c1ccc(OC(F)F)cc1` [P-3253, 4-[4-[4-[5-[4-(difluoromethoxy)phenyl]-4-methyl-1H-imidazol-2-yl]-4-methyl-1-piperidyl]-7H-pyrrolo[2,3-d]pyrimidin-6-yl]benzamide], the IC50 was 0.0001 to 1 µM against c-kit mutant D816V and under 10000 nM in experiment [1].

As to `Cc1nc(C2(C)CCN(c3ncnc4[nH]c(-c5ccc(NS(C)(=O)=O)cc5)cc34)CC2)[nH]c1-c1ccc(OC(F)F)cc1` [P-3254, N-[4-[4-[4-[5-[4-(difluoromethoxy)phenyl]-4-methyl-1H-imidazol-2-yl]-4-methyl-1-piperidyl]-7H-pyrrolo[2,3-d]pyrimidin-6-yl]phenyl]methanesulfonamide], the IC50 at c-kit mutant D816V is 0.0001 to 1 µM; in experiment [1], under 10000 nM.

For `Cc1nc(C2(C)CCN(c3ncnc4[nH]c(-c5ccc(C#N)nc5)cc34)CC2)[nH]c1-c1cccc(OC(F)F)c1` [P-3255, 5-[4-[4-[5-[3-(difluoromethoxy)phenyl]-4-methyl-1H-imidazol-2-yl]-4-methyl-1-piperidyl]-7H-pyrrolo[2,3-d]pyrimidin-6-yl]pyridine-2-carbonitrile], the IC50 against c-kit mutant D816V is 0.0001 to 1 µM; in experiment [1] it was under 10000 nM.

Turning to `COc1cccc(-c2[nH]c(C3(C)CCN(c4ncnc5[nH]c(-c6ccc(C#N)nc6)cc45)CC3)nc2C)c1` [P-3256, 5-[4-[4-[5-(3-methoxyphenyl)-4-methyl-1H-imidazol-2-yl]-4-methyl-1-piperidyl]-7H-pyrrolo[2,3-d]pyrimidin-6-yl]pyridine-2-carbonitrile], the IC50 is 0.0001 to 1 µM at c-kit mutant D816V and under 10000 nM in experiment [1].

Broadly, the IC50 is the point on the concentration scale where inhibition reaches its midpoint.
